Laboratory results from patent US11612600B2, “Pharmaceutical composition comprising macitentan for the treatment of chronic thromboembolic pulmonary hypertension” (ACTELION PHARMACEUTICALS LTD, priority 2019, dated 2023).

Tests used:
BCRP transporters = target: T1, BCRP transporters (Homo sapiens, UniProt Q9UNQ0); test: Effect of macitentan on rosuvastatin pharmacokinetics; format: in vivo; settings: macitentan 10 mg per day o.d.
T1 construct: BCRP is an efflux pump located in the gut, liver canalicular membrane, and kidney; from tissue; host or cells: in vivo: gut, liver canalicular membrane, kidney
T1 sequence (Q9UNQ0 1-655): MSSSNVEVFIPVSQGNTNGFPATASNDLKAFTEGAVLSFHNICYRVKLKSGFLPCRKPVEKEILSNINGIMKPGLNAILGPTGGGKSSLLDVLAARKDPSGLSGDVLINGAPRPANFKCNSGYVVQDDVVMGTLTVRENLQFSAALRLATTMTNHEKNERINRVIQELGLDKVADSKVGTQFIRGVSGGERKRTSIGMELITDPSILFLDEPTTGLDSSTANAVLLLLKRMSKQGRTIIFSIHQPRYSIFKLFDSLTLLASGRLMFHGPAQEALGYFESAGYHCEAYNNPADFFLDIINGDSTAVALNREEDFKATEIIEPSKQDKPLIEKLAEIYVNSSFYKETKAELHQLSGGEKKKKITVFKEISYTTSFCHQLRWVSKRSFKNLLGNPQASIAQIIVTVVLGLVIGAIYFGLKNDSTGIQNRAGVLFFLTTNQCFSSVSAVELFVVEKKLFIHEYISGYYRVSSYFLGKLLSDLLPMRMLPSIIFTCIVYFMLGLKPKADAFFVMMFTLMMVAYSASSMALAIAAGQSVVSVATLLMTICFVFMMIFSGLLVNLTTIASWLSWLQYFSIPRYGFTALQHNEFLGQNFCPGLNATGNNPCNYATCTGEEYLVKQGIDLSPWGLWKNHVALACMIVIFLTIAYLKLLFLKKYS
Source text: BCRP is an efflux pump located in the gut, liver canalicular membrane, and kidney, and is exposed to intracellular drug concentrations in the liver and the kidney.

[1] = cited from earlier work
CYP3A4 = CYP3A4 induction in human hepatocytes; format: in vitro ADME
[2] = rats, cited from earlier work
plasma ET-1 = settings: healthy human subjects; 1, 3, 10, 30 mg; cited from earlier work
[3] = Drug-drug interaction in general
[4] = Predicted plasma concentrations in PAH patients at 75 mg per day; format: in vivo, human; settings: macitentan 75 mg per day; for predicted peak plasma concentration: PAH patients, based on PK Sub-study, assuming dose linearity; for expected free plasma concentration: taking into account protein binding
Procedure: Predicted peak plasma concentrations of macitentan and ACT-132577 in PAH patients at 75 mg per day dose are expected to be around 5 μM and 14 μM, respectively, based on the PK Sub-study and assuming dose linearity. […] It is not likely that these unbound concentrations of macitentan and ACT-132577 result in any inhibition of BCRP in the liver or kidney or induction of CYP3A4 enzyme in the liver.

[5] = Effect of macitentan on decrease in hemoglobin concentration, pooled Phase I studies, Emax fit; format: in vivo, human; settings: healthy volunteers
Source text: Hemoglobin measurements were pooled from 3 Phase I clinical studies in healthy volunteers: • Study AC-055-102: Investigation of the PK, PD, safety and tolerability of macitentan in male subjects (the study protocol is described in the following publication: Sidharta et al., Safety, tolerability, pharmacokinetics, and pharmacodynamics of macitentan, an endothelin receptor antagonist, in an ascending multiple-dose study in healthy subjects. J. Clin. Pharmacol. (2013), 53(11), 1131-1138) • Study AC-055-116: Investigation of the PK, PD, safety and tolerability of macitentan in male Japanese subjects (the study protocol is described in the following publication: Yokoyama et al., Tolerability, Safety, Pharmacokinetics, and Pharmacodynamics of Macitentan, a New Endothelin Receptor Antagonist, in Healthy Japanese Male Subjects. Rinsho yakuri/Japanese Journal of Clinical Pharmacology and Therapeutics (2016), 47, 143-150) • Study AC-055-117: Investigation of the PK, PD, safety and tolerability of macitentan in male Korean subjects (the study protocol is described in the following publication: Ahn et al., Pharmacokinetic-pharmacodynamic relationships of macitentan, a new endothelin receptor antagonist, after multiple dosing in healthy Korean subjects, Am. […]
Hemoglobin concentrations measured in the morning of Day 11 of macitentan treatment and at baseline on Day −1 were used in the analysis. […]

human PXR = target: T2, human PXR (Homo sapiens, UniProt O75469); test: Activation of human PXR; format: cell-based
T2 sequence (O75469 1-434): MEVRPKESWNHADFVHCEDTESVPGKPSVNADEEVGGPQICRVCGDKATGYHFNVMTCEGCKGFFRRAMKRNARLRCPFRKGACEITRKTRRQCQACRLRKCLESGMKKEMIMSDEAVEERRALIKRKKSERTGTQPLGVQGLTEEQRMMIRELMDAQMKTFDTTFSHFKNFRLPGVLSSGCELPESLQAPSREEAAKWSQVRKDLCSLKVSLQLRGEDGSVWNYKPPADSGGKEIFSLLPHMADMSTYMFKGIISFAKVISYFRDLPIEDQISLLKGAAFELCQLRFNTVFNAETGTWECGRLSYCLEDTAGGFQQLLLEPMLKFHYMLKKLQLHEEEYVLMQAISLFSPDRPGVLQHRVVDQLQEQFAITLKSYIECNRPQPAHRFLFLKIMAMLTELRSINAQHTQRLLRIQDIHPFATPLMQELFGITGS

ET receptors = settings: cited from earlier work
[6] = continuous IV infusion, patients with PVR greater than 1200 dynes·s·cm^−5 before PEA surgery; cited from earlier work

Row | effect on the pharmacokinetics of 1 mg rosuvastatin (BCRP transporters) | CYP3A4 mRNA and enzyme activity (CYP3A4) | predicted peak plasma concentration [4] | expected free plasma concentration [4] [µM] | dose at which the effect on hemoglobin decrease plateaus [5] [mg] | maximum effect on hemoglobin decrease (Emax) ([5]; Day 11 vs baseline Day −1) | EC50 (human PXR) [µM] | Structure (SMILES) | absorption into the plasma ([1]; in humans) | half-life ([1]; in humans) | time to steady state ([1]; in humans) | dose of maximal or near-maximal effect ([2]; EMA Assessment Report) [mg/kg] | maximal effective dose [2] [mg/kg] | plasma ET-1 concentrations at steady-state (plasma ET-1) | drug-drug interaction [3] | time to peak plasma concentration ([1]; after the first dose of macitentan) | plasma concentrations relative to macitentan ([1]; in vivo) | affinity for the ET receptors relative to parent compound (ET receptors) | effect on preoperative cardiac output and PVR [6]
1 | has not shown any effect | concentration-dependent increases | around 5 μM | 0.02 | 10 | around 1.23 g/dL | 1.1 to 1.2 | CCCNS(=O)(=O)Nc1ncnc(OCCOc2ncc(Br)cn2)c1-c1ccc(Br)cc1 [macitentan, propylsulfamic acid [5-(4-bromo-phenyl)-6-[2-(5-bromo-pyrimidin-2-yloxy)-ethoxy]-pyrimidin-4-yl]-amide] | absorbed slowly | about 16 hours | by the third day of administration | 10 | 30 | no further increase beyond the 10 mg oral dose | No Drug-Drug Interaction has been observed | – | – | – | –
2 | – | concentration-dependent increases | ~14 µM | 0.07 | – | – | 7.2 to 8.7 | NS(=O)(=O)Nc1ncnc(OCCOc2ncc(Br)cn2)c1-c1ccc(Br)cc1 [ACT-132577] | – | approximately 48 hours | – | – | – | – | No Drug-Drug Interaction has been observed | about 30 hours | higher plasma concentrations than macitentan | lower affinity | –
3 | – | – | – | – | – | – | – | CCCCC[C@H](O)/C=C/[C@@H]1[C@H]2C/C(=C/CCCC(=O)O)O[C@H]2C[C@H]1O [epoprostenol] | – | – | – | – | – | – | – | – | – | – | may significantly increase preoperative cardiac output and reduces PVR
